Some results are limits rather than exact numbers.

The test system of this test is Plasmodium falciparum. The test can be described thus: In vitro anti-malarial activity against Plasmodium falciparum, IC50 assay / [3H]-Hypoxanthine incorporation assay. Type of test: cell-based. As to conditions: Erythrocyte; Plasmodium falciparum strains in parasitized red blood cells, [3H]-hypoxanthine incorporation, 48 hours at 37°C. As for the experimental part:
The compounds of this invention may be tested in one of several biological assays to determine the concentration of compound which is required to have a given pharmacological effect. In vitro anti-malarial activity against Plasmodium falciparum. IC50 assay / [^3H]-Hypoxanthine assay
The culture medium comprised RPMI 1640 with 25mM HEPES, sodium bicarbonate and glutamine (GIBCO™ cat. ref.: 52400), supplemented with 10% of pooled human sera AB (Irvine Scientific, cat. ref.: 5009) and HT supplement (0.15 mM hypoxanthine and 24 µM thymidine), (GIBCO™ cat. ref.: 41065). Human sera were decomplemented 30 min. at 56°C, aliquoted and stored frozen at -20°C until use in this culture medium.
This culture medium ("complete medium") was usually prepared fresh just before use and pre-warmed to 37°C.
Red blood cells O+ stock suspensions were prepared from whole blood bags coming from incomplete blood donation, provided by the Spanish Red Cross (<25 days after sampling). This "whole blood" was aliquoted and stored at 4°C.
To prepare red blood cells for the assay, the whole blood was centrifuged and washed 3 times with RPMI without serum. The upper phase, containing white blood cells was removed. The washed red blood cells were kept as a 50 % suspension in complete medium. The prepared cells were stored at 4°C and were employed in the assay at any time up to 4 days after preparation.
Test compounds were dissolved at 2 mg/ml in 100% DMSO on the day of the assay. If necessary, complete dissolution was achieved by gentle heating (the mixture was heated at a temperature <37°C) and sonication (sonication bath).
For IC50 determinations, 10 serial 2-fold dilutions were prepared in complete medium in the presence of a constant amount of DMSO. Any obvious signs of insolubility of the stock solutions in 100% DMSO or precipitation when these solutions were diluted in assay media, were recorded.
Plasmodium falciparum strains were maintained in complete medium at an hematocrit of 5% in continuous culture using a method adapted from that published by Trager and Jensen(1) and Traeger(2).
The parasitemia was calculated by counting the percentage of parasitized erythrocytes by optical microscopy. Thin films of blood were made every day from each culture flask, fixed with methanol and stained for 10 min. in Giemsa (Merck, cat. ref.: 1.09204) at 10 % in buffered water pH 7.2. The glass slides were observed and counted with an optical microscope (Nikon, Eclipse E200) equipped with a 100 X immersion oil objective.
The culture was maintained at an hematocrit of 5%, with a daily change of medium and was diluted when parasitemia had reached about 5%.
[^3H] Hypoxanthine incorporation assay was conducted using a method adapted from Desjardins et al. (3). The assays were performed in 96 wells flat bottom microplates. • 1. Serial dilutions of the test compounds (50µl of a 5X solution / well) were deposited in duplicate. Compounds of the invention were tested in this assay. Chloroquine and Atovaquone were used as control compounds for each assay. • 2. […] [^3H]-Hypoxanthine (Amersham Biosciences, cat. ref.: TRK74) was added extemporaneously to the inoculum suspension at a concentration of 1 µCi/ml (equating to […]). 200 µl of the resulting suspension was distributed into each well (other than the control well H12 described below) leading to a final volume of 250 µl per well, at 2% of hematocrit and 0.5 % of parasitemia / well. • 4. […]
Broadly, the IC50 is the concentration that gives 50% inhibition. Lower therefore signals higher potency. Take `Cc1[nH]c(C)c(-c2ccc(C#CCN(C)Cc3ccc(OC(F)(F)F)cc3)cc2)c(=O)c1Cl` [Example 1, 3-Chloro-2,6-dimethyl-5-(4-{3-[methyl({4-[(trifluoromethyl)oxy]phenyl}methyl)amino]-1-propyn-1-yl}phenyl)-4(1H)-pyridinone]: the IC50 was less than 0.125 µg/mL.
`Cc1[nH]c(C)c(-c2ccc(C#CCN(C)Cc3ccc(C(F)(F)F)cc3)cc2)c(=O)c1Cl` [Example 2, 3-Chloro-2,6-dimethyl-5-{4-[3-(methyl{[4-(trifluoromethyl)phenyl]methyl}amino)-1-propyn-1-yl]phenyl}-4(1H)-pyridinone] registered an IC50 of less than 0.125 µg/mL.
Molecule `Cc1[nH]c(C)c(-c2ccc(C#CCN(C)Cc3ccccc3C(F)(F)F)cc2)c(=O)c1Cl` [Example 3, 3-Chloro-2,6-dimethyl-5-{4-[3-(methyl{[2-(trifluoromethyl)phenyl]methyl}amino)-1-propyn-1-yl]phenyl}-4(1H)-pyridinone] gave an IC50 of less than 0.125 µg/mL.
On to `Cc1[nH]c(C)c(-c2ccc(C#CCN(C)Cc3ccc(C(F)(F)F)cc3C(F)(F)F)cc2)c(=O)c1Cl` [Example 4, 3-(4-{3-[{[2,4-Bis(trifluoromethyl)phenyl]methyl}(methyl)amino]-1-propyn-1-yl}phenyl)-5-chloro-2,6-dimethyl-4(1H)-pyridinone], for which the IC50 is less than 0.125 µg/mL.
Next, `CCCN(CC#Cc1ccc(-c2c(C)[nH]c(C)c(Cl)c2=O)cc1)Cc1ccc(OC(F)(F)F)cc1.O=C(O)C(F)(F)F` [Example 6, 3-Chloro-2,6-dimethyl-5-(4-{3-[propyl({4-[(trifluoromethyl)oxy]phenyl}methyl)amino]-1-propyn-1-yl}phenyl)-4(1H)-pyridinone trifluoroacetate]: less than 0.125 µg/mL; `Cc1[nH]c(C)c(-c2ccc(C#CCNCc3ccc(OC(F)(F)F)cc3)cc2)c(=O)c1Cl` [Example 8, 3-Chloro-2,6-dimethyl-5-(4-{3-[({4-[(trifluoromethyl)oxy]phenyl}methyl)amino]-1-propyn-1-yl}phenyl)-4(1H)-pyridinone]: less than 0.125 µg/mL.
In the case of `COCCN(CC#Cc1ccc(-c2c(C)[nH]c(C)c(Cl)c2=O)cc1)Cc1ccc(OC(F)(F)F)cc1` [Example 9, 3-Chloro-2,6-dimethyl-5-(4-{3-[[2-(methyloxy)ethyl]({4-[(trifluoromethyl)oxy]phenyl}-methyl)amino]-1-propyn-1-yl}phenyl)-4(1H)-pyridinone], the IC50 is less than 0.125 µg/mL.
As to `Cc1[nH]c(C)c(-c2ccc(C#CCN3CCC(c4ccccc4)CC3)cc2)c(=O)c1Cl` [Example 10, 3-Chloro-2,6-dimethyl-5-{4-[3-(4-phenyl-1-piperidinyl)-1-propyn-1-yl]phenyl}-4(1H)-pyridinone], the IC50 was less than 0.125 µg/mL.
For the molecule `Cc1[nH]c(C)c(-c2ccc(C#CCN3CCC(c4ccc(OC(F)(F)F)cc4)CC3)cc2)c(=O)c1Cl.Cl` [Example 11, 3-Chloro-2,6-dimethyl-5-{4-[3-(4-{4-[(trifluoromethyl)oxy]phenyl}-1-piperidinyl)-1-propyn-1-yl]phenyl}-4(1H)-pyridinone hydrochloride], the half-maximal inhibitory concentration (IC50) is less than 0.125 µg/mL.
In turn, `Cc1[nH]c(C)c(-c2ccc(C#CCN(Cc3ccccc3)Cc3ccccc3)cc2)c(=O)c1Cl.Cl` [Example 12, 3-(4-{3-[Bis(phenylmethyl)amino]-1-propyn-1-yl}phenyl)-5-chloro-2,6-dimethyl-4(1H)-pyridinone hydrochloride] registered an IC50 of less than 0.125 µg/mL.
Molecule `Cc1[nH]c(C)c(-c2ccc(C#CCN3CCCCC3c3ccccc3)cc2)c(=O)c1Cl.Cl` (centres unmarked) [Example 13, 3-Chloro-2,6-dimethyl-5-{4-[3-(2-phenyl-1-piperidinyl)-1-propyn-1-yl]phenyl}-4(1H)-pyridinone hydrochloride] gave an IC50 of less than 0.125 µg/mL.
Next, `Cc1[nH]c(C)c(-c2ccc(C#CCN3CCc4cc(C(F)(F)F)ccc4C3)cc2)c(=O)c1Cl.Cl` [Example 14, 3-Chloro-2,6-dimethyl-5-(4-(3-[6-(trifluoromethyl)-3,4-dihydro-2(1H)-isoquinolinyl]-1-propyn-1-yl}phenyl)-4(1H)-pyridinone hydrochloride]: less than 0.125 µg/mL.
`Cc1[nH]c(C)c(-c2ccc(C#CCN3CCc4cccc(C(F)(F)F)c4C3)cc2)c(=O)c1Cl.Cl` [Example 15, 3-Chloro-2,6-dimethyl-5-(4-{3-[8-(trifluoromethyl)-3,4-dihydro-2(1H)-isoquinolinyl]-1-propyn-1-yl}phenyl)-4(1H)-pyridinone hydrochloride] yielded an IC50 of less than 0.125 µg/mL.
Molecule `Cc1[nH]c(C)c(-c2ccc(C#CCN(C)CCc3ccc(OC(F)(F)F)cc3)cc2)c(=O)c1Cl.Cl` [Example 17, 3-Chloro-2,6-dimethyl-5-(4-{3-[methyl(2-{4-[(trifluoromethyl)oxy]phenyl}ethyl)amino]-1-propyn-1-yl}phenyl)-4(1H)-pyridinone hydrochloride] returned an IC50 of less than 0.125 µg/mL.
Next, `Cc1[nH]c(C)c(-c2ccc(C#CCCN(C)Cc3ccc(OC(F)(F)F)cc3)cc2)c(=O)c1Cl.Cl` [Example 18, 3-Chloro-2,6-dimethyl-5-(4-{4-[methyl({4-[(trifluoromethyl)oxy]phenyl}methyl)amino]-1-butyn-1-yl}phenyl)-4(1H)-pyridinone hydrochloride]: less than 0.125 µg/mL; `Cc1[nH]c(C)c(-c2ccc(C#CCN(C)Cc3ccc(OC(F)(F)F)cc3)cc2)c(=O)c1Cl.Cl` [Example 19, 3-Chloro-2,6-dimethyl-5-(4-{3-[methyl({4-[(trifluoromethyl)oxy]phenyl}methyl)amino]-1-propyn-1-yl}phenyl)-4(1H)-pyridinone hydrochloride]: less than 0.125 µg/mL.
The molecule `CCCN(CC#Cc1ccc(-c2c(C)[nH]c(C)c(Cl)c2=O)cc1)Cc1ccc(OC(F)(F)F)cc1` [Example 20, 3-Chloro-2,6-dimethyl-5-(4-{3-[propyl({4-[(trifluoromethyl)oxy]phenyl}methyl)amino]-1-propyn-1-yl}phenyl)-4(1H)-pyridinone] yielded an IC50 of less than 0.125 µg/mL.
Turning to `CCCN(CC#Cc1ccc(-c2c(C)[nH]c(C)c(Cl)c2=O)cc1)Cc1ccc(OC(F)(F)F)cc1.Cl` [Example 21, 3-Chloro-2,6-dimethyl-5-(4-{3-[propyl({4-[(trifluoromethyl)oxy]phenyl}methyl)amino]-1-propyn-1-yl}phenyl)-4(1H)-pyridinone hydrochloride], the IC50 was less than 0.125 µg/mL.
In turn, `Cc1[nH]c(C)c(-c2ccc(C#CCN3CCC(c4ccc(OC(F)(F)F)cc4)CC3)cc2)c(=O)c1Cl.O=C(O)C(F)(F)F` [Example 22, 3-Chloro-2,6-dimethyl-5-{4-[3-(4-{4-[(trifluoromethyl)oxy]phenyl}-1-piperidinyl)-1-propyn-1-yl]phenyl}-4(1H)-pyridinone trifluoroacetate] registered an IC50 of less than 0.125 µg/mL.
The molecule `Cc1[nH]c(C)c(-c2ccc(CN(C)Cc3ccc(OC(F)(F)F)cc3)cc2)c(=O)c1Cl.Cl` [Example 23, 3-Chloro-2,6-dimethyl-5-(4-{[methyl({4-[(trifluoromethyl)oxy]phenyl}methyl)amino]-methyl}phenyl)-4(1H)-pyridinone hydrochloride] registered an IC50 of less than 0.125 µg/mL.
Regarding `Cc1[nH]c(C)c(-c2ccc(CN3CCC(c4ccc(OC(F)(F)F)cc4)CC3)cc2)c(=O)c1Cl.Cl` [Example 24, 3-Chloro-2,6-dimethyl-5-{4-[(4-{4-[(trifluoromethyl)oxy]phenyl}-1-piperidinyl)methyl]-phenyl}-4(1H)-pyridinone hydrochloride], the IC50 is less than 0.125 µg/mL.
Regarding `Cc1[nH]c(C)c(-c2cccc(CN(C)Cc3ccc(OC(F)(F)F)cc3)c2)c(=O)c1Cl.Cl` [Example 25, 3-Chloro-2,6-dimethyl-5-(3-{[methyl({4-[(trifluoromethyl)oxy]phenyl}methyl)amino]-methyl}phenyl)-4(1H)-pyridinone hydrochloride], the IC50 is less than 0.125 µg/mL.
Next, `Cc1[nH]c(C)c(-c2ccc(-c3ccc(CN(C)Cc4ccc(OC(F)(F)F)cc4)s3)cc2)c(=O)c1Cl.O=C(O)C(F)(F)F` [Example 26, 3-Chloro-2,6-dimethyl-5-[4-(5-{[methyl({4-[(trifluoromethyl)oxy]phenyl}methyl)amino]-methyl}-2-thienyl)phenyl] -4(1H)-pyridinone trifluoroacetate]: less than 0.125 µg/mL.

For the origin of these results see patent EP2246329A1, “4(1H)-pyridinone derivatives and their use as antimalaria agents” (Glaxo Group Limited, priority 2009, dated 2010).
